Measurements as given in patent publication US7629317B2, “Control of growth and repair of gastro-intestinal tissues by gastrokines and inhibitors” (The University of Chicago, priority 2001, dated 2009).
Entries after “also recorded” stand apart in the source; their conditions may differ.

Columns and labels:
[1] = test system: BSC-1 epithelial cell line; assay: Growth (mitogenesis) assay on confluent BSC-1 cells, cells counted 4 days later; assay type: cell-based, monkey; settings: for mitogenic activity (in words): compared with related peptides; for EC50 / K1/2; concentration for half-maximal growth stimulation: synthetic peptides of Table 1; for EC50: read-out: K1/2, concentration for half-maximal growth stimulation; for antagonism of the activity of peptide 78-119: inactive overlapping peptide with the mitogenic 42-mer; for antagonism of the activity of peptide 104-117: inactive peptide with the mitogenic 14-mer
Excerpt: Finding that a 42-amino acid peptide representing a central region of the novel antrum mucosal cell protein AMP-18 had mitogenic activity similar in character to that of the intact protein in pig and mouse antrum extracts (Table 1), has facilitated the characterization of the bio-active region of the molecule. […] Growth activity determinations have so far been accomplished with the kidney epithelial cell line as well as several gastric and intestinal lines.
Non-transformed monkey kidney epithelial cell line BSC-1 and other epithelial cell lines were used to assess effects on growth. In general, conditions were chosen for each line such that cells are grown to confluence in plastic dishes in supplemented growth medium with minimal calf (or fetal) serum for growth (Lieske et al., 1997); BSC-1 cells become confluent at 10^6/60 mm dish with 1% calf serum. At the start of the growth assay the medium on the confluent culture was aspirated and replaced with fresh medium with minimal serum to maintain viability (0.01% for BSC-1) cells. AMP-18 preparations were added to the culture medium and 4 days later the cell monolayer was rinsed, detached with trypsin, and the cells were counted using a hemocytometer. Determination of the capacity of AMP-18 to initiate DNA synthesis was measured by the incorporation of [^3H]thymidine (Toback, 1980); to confirm the DNA synthesis assay, autoradiograms of leveled cells were counted (Kartha and Toback, 1985).

[2] = test system: Helicobacter pylori; assay: Growth inhibition on a bacterial lawn (filter diffusion); assay type: cell-based; settings: solution on filter
Procedure: To determine if AMP peptide inhibits growth of H. pylori, a lawn of bacteria was prepared on a culture dish. A small circular filter was placed in the center of the dish, a solution of a test agent was placed on the filter so it diffused onto the lawn, and its effect on bacterial growth around the filter was measured. AMP peptide 77-97 (SEQ ID NO: 12) (Table 1), a scrambled version of this AMP peptide (negative control) (SEQ ID NO: 19), or the antibiotic clarithromycin (positive control) was added to a filter on different cultures. […] In addition, AMP peptide could serve as a therapeutic agent to treat H. pylori infections in the stomach, and thereby prevent the capacity of this organism to cause gastritis, gastric ulcers, and gastric adenocarcinomas.

[3] = test system: IEC-18 cells; assay: Growth of confluent cultures of IEC-18 cells (cell count); assay type: cell-based, rat
Procedure: Confluent cultures of IEC-18 cells were prepared. One day later, medium was aspirated and replaced with 5 ml of DMEM containing CS (0.5%) and insulin, without (control) or with mitogenic peptide 58-99 (8 μg/ml). Sister plates receiving 1 ml medium and different amounts of peptide 67-85 were incubated at 1 hr at 38° C. on a CO2 incubator, and then an additional 4 ml of medium was added to each dish. Peptide 58-99 was added to 2 of the 4-sister plates at each concentration of peptide 67-85, and the number of cells was counted. […] Stimulation of cell growth by mitogenic peptide 58-99 was completely abolished by preincubation of cells with 0.25 μg/ml of peptide 67-85. […] Values for the number of cells per culture are shown relative to multiplication of cells exposed to the vehicle during the same period.
Urea (6 M) was employed to release proteins from the insoluble fraction solubilize rhAMP-18 containing the His6-tag (SEQ ID NO: 16), and make it available to bind to the Ni^2+-charged resin from which it was subsequently eluted with a gradient of imidazole (0 to 200 mM). The amount of eluted rhAMP-18 was measured using the BCA assay, and the appearance of a single band at the predicted size of 19-20 kD was confirmed by SDS-PAGE followed by immunoblotting. To determine if eluted rhAMP-18 renatured to assume a structure that was mitogenic, aliquots of the eluate (following removal of urea and imidazole by dialysis) were added to cultures of IEC-18 cells and the number of cells was counted 4 days later. […] AMP peptide 77-97 refers to the mature protein; same as peptide 97-117 of human precursor protein: Table 1. These observations indicate that biologically active recombinant human AMP-18 that can be utilized in diverse clinical situations is available. The mitogenic potency of rhAMP-18 is in the nanomolar range which would be expected for a native gastric cell growth factor that participates in the maintenance and repair of the stomach in vivo.
(§1) To characterize the capacity of gastric and intestinal cells to respond to AMP-18, AGS gastric adenocarcinoma cells, HAE human gastric antrum mucosa primary cultures transformed with SV40 large T antigen, rat diploid small intestinal epithelial cells of the IEC-6 (FIG. 15) and IEC-18 lines, NCI N-87 gastric carcinoma cells, and SK-GT5 gastroesophageal adenocarcinoma cells were studied; human WI-38 fibroblasts and HeLa cells served as non-GI control cell lines. Mitogenesis was assayed by performing cell counts 3 to 4 days after exposing cells to the agent of interest, trypsinizing the culture to prepare single cells, and confirming this while counting them in a hemocytometer.

[4] = test system: AGS cells; assay: Growth of gastric epithelial AGS cells (cell count four days later); assay type: cell-based, human; settings: for growth stimulation of AGS cells (in words): peptide 77-97 8 μg/ml, EGF 50 ng/ml at saturating doses
Procedure: as §1

[5] = test system: occludin, ZO-1, ZO-2, claudin-5, E-cadherin, JAM; assay: Accumulation of tight and adherens junction proteins in C2 cells (immunoblot of insoluble fraction, confocal microscopy); assay type: cell-based, human; settings: 8 hr; peptides 8 μg/ml, EGF 50 ng/ml
Procedure: To find out how the peptide exerts its cytoprotective effect, C2 cell monolayers were treated with AMP peptide, and oxidant injury was induced with monochloramine 18 hours later. Changes in the levels of specific tight junction (TJ) proteins were checked. Cells were lysed, and proteins of the insoluble/particulate fraction were studied by immunoblotting. […] This observation represents the first evidence that AMP peptide enhances accumulation of specific TJ proteins in colonic epithelial cells. […] To carry out this experiment, C2 cells were exposed to AMP peptide for different periods of time, the NP-40-insoluble fraction was obtained, Western blots were prepared, and the amount of each immunoreactive protein was quantified. A 65% increase in immunoreactivity of each protein compared to control was detected for occludin after 2 hr, and for ZO-1 at 8 hr. Hsc73, which is constitutively expressed in these cells, was not altered by exposure to AMP peptide for up to 18 hr.
Confluent monolayers of C2 cells were treated with AMP peptide or vehicle for 8 hr. Cells were then collected, proteins in the NP-40-insoluble fraction were separated by SDS-PAGE, immunoblots were prepared, and the relative amounts of immunoreactive proteins were compared by densitometric analysis. […] These changes appear relatively specific for occludin, ZO-1, ZO-2, claudin-5, E-cadherin, and JAM because they were not observed for several other proteins localized in the TJ (claudin-1, claudin-2), adherens junction (β-catenin), plasma membrane (Na-K-2Cl cotransporter, α or β subunit of Na-K-ATPase), or cytosol (Rho A, hsc73).
To better understand the mechanism(s) by which AMP peptide enhances accumulation of TJ-associated proteins, experiments were performed to determine whether the peptide exerted its effect at the apical or basolateral surface of C2 cells. Monolayers of C2 cells were grown on Transwell filters, AMP peptide (8:g/ml) was added to the apical or basolateral compartment of the Transwell, and cells were harvested 8 hr later. The NP-40-insoluble fraction was obtained, its proteins separated, and immunoblots were prepared.

Molecule: LDALVKEKKLQGKGPGGPPPKGLMY [97–121]
- mitogenic activity (in words) [1]: more active
- EC50 [1]: 200 nM

Molecule: KKLQGK [104–109]
- EC50 [1]: 7400 nM

Molecule: CC[C@H]1OC(=O)[C@H](C)[C@@H](O[C@H]2C[C@@](C)(OC)[C@@H](O)[C@H](C)O2)[C@H](C)[C@@H](O[C@@H]2O[C@H](C)C[C@H](N(C)C)[C@H]2O)[C@](C)(OC)C[C@@H](C)C(=O)[C@H](C)[C@@H](O)[C@]1(C)O [clarithromycin]
- growth of H. pylori lawn [2]: inhibited growth

Molecule: KKLQGKGPGGPPPK [104–117, 14 amino acid mitogenic domain]
- activity relative to the 42-amino acid peptide ([1]; from the higher K1/2 value): 30-40%
- EC50 [1]: 800 nM

Molecule: KKLQGKGPGGPPPKGLMY [104–111]
- mitogenic activity (in words) [1]: slightly less activity
- EC50 [1]: 1000 nM

Molecule: KKTCIVHKMKK [78–88]
- antagonism of the activity of the protein in stomach extracts [1]: block
- antagonism of the activity of peptide 78-119 [1]: block; also recorded: antagonize
- antagonism of the activity of peptide 104-117 ([1]; listed as 68-88): NOT
- antagonism of the activity of peptide 104-117 ([1]; listed as peptide 78-88): does not
- K1/2; concentration for half-maximal growth stimulation [1]: Inactive

Molecule: GPGG [110–113]
- K1/2; concentration for half-maximal growth stimulation [1]: Inactive

Molecule: LDTMVKEQK . . . GKGPGGAPPKDLMY (LDTMVKEQKGKGPGGAPPKDLMY) [97–119]
- EC50 [1]: 200 nM

Molecule: GKPLGQPGKVPKLDGKEPLAK [97–117**, scrambled version of AMP peptide 77-97, negative control, reference compound]
- growth stimulation of BSC-1 cells ([1]; concentrations up to 8 μg/ml): did NOT stimulate growth
- growth of H. pylori lawn ([2]; listed as scrambled AMP peptide): not
- growth of H. pylori lawn ([2]; listed as scrambled peptide): did not inhibit growth
- growth stimulation of IEC-18 cells (in words) ([3]; added alone, peptides up to 8 μg/ml): did NOT stimulate growth
- growth stimulation of AGS cells (in words) [4]: not stimulated
- accumulation of occludin and ZO-1 (specificity) [5]: not replicated

Molecule: KGPGGPPPK [109–117]
- EC50 [1]: 2500 nM

Molecule: KKEVMPSIQSLDALVKEKK [87–105]
- antagonism of the activity of the protein in stomach extracts [1]: block
- antagonism of the activity of peptide 78-119 [1]: block; also recorded: antagonize
- antagonism of the activity of peptide 104-117 ([1]; listed as peptide 87-105): blocks; also recorded: antagonizes
- K1/2; concentration for half-maximal growth stimulation [1]: Inactive
- concentration nearly abolishing growth-stimulatory effect of peptide 58-99 ([3]; FIG. 17): ~0.1 µg/mL
- concentration completely abolishing growth stimulation by peptide 58-99 ([3]; preincubation of cells, peptide 58-99 8 μg/ml): 0.25 µg/mL
- inhibition of growth stimulation by peptide 58-99 [4]: completely inhibits
- growth stimulation of AGS cells (in words) [4]: not stimulated

Molecule: KKTCIVHKMKKEVMPSIQSLDALVKEKKLQGKGPGGPPPKGL [78–119, 42 amino acid peptide of human preAMP-18, peptide 58-99 of the mature protein]
- mitogenic activity (in words) [1]: good mitogenic activity
- EC50 [1]: 300 nM
- increase in cell number ([3]; 3 days, peptide 58-99 8 μg/ml, EGF 50 ng/ml, vehicle 290%): 407%

B1: intact AMP protein: the intact, natural gastrokine AMP-18 protein of antrum mucosa (protein)
chain: YTVNINGNDGNVDGSGQQSVSINGVHNVANIDNNNGWDSWNSLWDYENSFAATRLFSKKSCIVHRMNKDAMPSLQDLDTMVKEQKGKGPGGAPPKDLMYSVNPTRVEDLNTFGPKIAGMCRGIPTYVAEEIPGPNQPLYSKKCYTADILWILRMSFCGTSVETY
- estimate for the activity of the intact AMP protein ([1]; estimate): 1 to 10 nM
